For orientation: T/C means the result in the treated group divided by that in the control group, in per cent.

Experimental findings from ChEMBL document CHEMBL1151635, “Antineoplastic agents, 105. Zephyranthes grandiflora” (1984) are described below.

Common to all, as to assay type: functional
Assay [1] has as its system P388. The assay is described as follows: In vivo cytotoxicity against mouse P388 cells at 12.5 mg/kg relative to control.
Assay [2] has as its system P388. Description: In vivo cytotoxicity against mouse P388 cells at 0.78 to 3.1 mg/kg relative to control. The settings on record: dose mg/kg 0.78-3.1.
In assay [3] the test system is P388. Description: In vivo cytotoxicity against mouse P388 cells at 0.75 to 6 mg/kg relative to control. The settings on record: dose mg/kg 0.75-6.
The subject of assay [4] is P388. The assay is described as follows: Cytotoxicity against mouse P388 cells. The settings on record: read-out: ED50 (the source's name).

`O=C1N[C@H]2[C@H](O)[C@H](O)[C@@H](O)[C@H](O)[C@@H]2c2cc3c(c(O)c21)OCO3` [PANCRATISTATIN]: the T/C is reported as 206% in assay [1], 135% in assay [2] and 138% in assay [3]. Further, in assay [4], the EC50 is less than 0.01 µg/mL.
